The values that follow are results of earlier work, collected in US20240127967A1.

For this data set, the system named is MARV. The following applies: mouse, in vivo; cited from earlier work.

Regarding `CC(C)COCC(CN(Cc1ccccc1)c1ccccc1)N1CCCC1` (stereo not shown) [Bepridil], the protection of mice result is “strongly protected”.
